Legend:
[1] = test system: HCC827 NSCLC cell with EGFR exon 19 deletion mutation; experiment: HCC827 cell proliferation assay (counter screen); format: cell-based, human; details: Homo sapiens, HCC827 cells, 72 hours treatment, CellTiter96, read-out: anti-proliferation activity HCC827 EGFR Exon19 del, IC50 ranking
Outline: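 HCC827 cells (EGFR exon 19 deletion) were seeded at 8000 cells/well in RPMI1640 with 10% FBS, then exposed to increasing compound concentrations for 72 h at 37 °C. Viability was read by CellTiter96 AQueous One (MTS), absorbance 490 nm after 2–4 h.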

[2] = test system: THP-1 human acute monocytic leukemia cell with NRAS G12D mutation; experiment: THP-1 cell proliferation assay (counter screen); format: cell-based; details: Homo sapiens, THP-1 cells, 72 hours treatment, CellTiter96, read-out: anti-proliferation activity THP-1 NRAS N12D, IC50 ranking
Outline: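 Viability measured as 490 nm absorbance after 2–4 h with CellTiter96 AQueous One reagent, following 72 h treatment with rising compound concentrations. THP-1 cells, 5000/well, grown in RPMI 1640 with 10% FBS and 0.05 mM 2-mercaptoethanol at 37° C, 5% CO2, plated overnight before dosing.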

[3] = test system: A375 melanoma cell with BRAF V600E mutation; experiment: A375 cell proliferation assay (counter screen); format: cell-based, human; details: Homo sapiens, A-375, A375 cells, 72 hours treatment, CellTiter96, read-out: anti-proliferation activity A375 BRAF V600E, IC50 ranking
Outline: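 A375 cells (BRAF V600E) seeded at 2000 cells/well in DMEM with 10% FBS, settled overnight at 37° C, 5% CO2, then exposed to increasing compound concentrations for 72 hours. Viability read by MTS-type CellTiter96 AQueous reagent, absorbance at 490 nm after 2–4 hours.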

[4] = test system: MV4-11 human acute myeloid leukemia cell with FLT3-ITD mutation; experiment: MV4-11 cell proliferation assay (CellTiter 96); format: cell-based; details: Homo sapiens, MV4-11, 72 h, MV4-11 cells, 72 hours treatment, CellTiter96; read-out: anti-proliferation activity MV4-11 (FLT3-ITD), IC50 ranking
Outline: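 Cells seeded at 6500/well in IMDM with 10% heat-inactivated FBS, left overnight at 37 °C, 5% CO2, then exposed to increasing compound concentrations for 72 h. Viability read as absorbance at 490 nm after 2–4 h with CellTiter96 AQueous One reagent.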

PDGFRα kinase = target: T1, PDGFRα kinase (Homo sapiens, UniProt P16234); experiment: PDGFRα kinase assay (AlphaScreen); format: biochemical; details: read-out: Ranking of IC50 values, PDGFRα
T1 construct: purchased SignalChem
T1 sequence (P16234 24-1089): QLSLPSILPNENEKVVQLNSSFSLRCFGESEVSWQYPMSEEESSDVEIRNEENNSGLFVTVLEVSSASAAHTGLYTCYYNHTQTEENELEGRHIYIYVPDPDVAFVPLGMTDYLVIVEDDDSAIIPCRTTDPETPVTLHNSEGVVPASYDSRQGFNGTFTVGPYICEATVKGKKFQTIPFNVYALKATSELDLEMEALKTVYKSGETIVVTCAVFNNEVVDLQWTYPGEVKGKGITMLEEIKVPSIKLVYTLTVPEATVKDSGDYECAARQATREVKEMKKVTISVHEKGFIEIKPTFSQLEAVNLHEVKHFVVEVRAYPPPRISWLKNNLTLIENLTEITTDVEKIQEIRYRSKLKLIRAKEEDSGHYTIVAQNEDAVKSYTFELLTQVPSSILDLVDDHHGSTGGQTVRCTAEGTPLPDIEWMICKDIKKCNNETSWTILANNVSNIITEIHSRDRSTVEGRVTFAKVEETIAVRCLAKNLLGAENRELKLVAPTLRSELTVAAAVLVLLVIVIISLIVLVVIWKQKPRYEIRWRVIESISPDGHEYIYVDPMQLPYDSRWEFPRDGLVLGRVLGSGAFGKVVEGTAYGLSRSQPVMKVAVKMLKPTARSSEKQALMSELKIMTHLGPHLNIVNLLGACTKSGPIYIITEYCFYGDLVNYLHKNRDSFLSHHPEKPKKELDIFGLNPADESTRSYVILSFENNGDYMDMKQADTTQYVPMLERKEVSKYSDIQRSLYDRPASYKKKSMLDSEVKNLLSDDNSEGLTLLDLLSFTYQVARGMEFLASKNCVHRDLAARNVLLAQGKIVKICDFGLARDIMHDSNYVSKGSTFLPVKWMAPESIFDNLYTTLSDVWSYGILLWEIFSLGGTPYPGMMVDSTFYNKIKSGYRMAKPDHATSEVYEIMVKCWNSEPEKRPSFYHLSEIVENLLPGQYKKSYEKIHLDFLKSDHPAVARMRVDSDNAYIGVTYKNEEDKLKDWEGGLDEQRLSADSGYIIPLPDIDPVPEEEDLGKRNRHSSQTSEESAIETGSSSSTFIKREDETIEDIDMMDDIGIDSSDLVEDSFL
Outline: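 IC50 values came from duplicate serial dilutions, with product read by AlphaScreen. The reaction ran 30 min at 30 °C, then EDTA stop: 1.5 ng recombinant enzyme, biotin-poly(Glu4:Tyr1) substrate, 10 μM ATP, 10 mM MOPS pH 7.0, 10 mM MgCl2.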

MET kinase = target: T2, MET kinase (Homo sapiens, UniProt P08581); experiment: MET kinase assay (AlphaScreen, counter screen); format: biochemical; details: read-out: Ranking of IC50 values, MET
T2 construct: purchased SignalChem
T2 sequence (P08581 25-1390): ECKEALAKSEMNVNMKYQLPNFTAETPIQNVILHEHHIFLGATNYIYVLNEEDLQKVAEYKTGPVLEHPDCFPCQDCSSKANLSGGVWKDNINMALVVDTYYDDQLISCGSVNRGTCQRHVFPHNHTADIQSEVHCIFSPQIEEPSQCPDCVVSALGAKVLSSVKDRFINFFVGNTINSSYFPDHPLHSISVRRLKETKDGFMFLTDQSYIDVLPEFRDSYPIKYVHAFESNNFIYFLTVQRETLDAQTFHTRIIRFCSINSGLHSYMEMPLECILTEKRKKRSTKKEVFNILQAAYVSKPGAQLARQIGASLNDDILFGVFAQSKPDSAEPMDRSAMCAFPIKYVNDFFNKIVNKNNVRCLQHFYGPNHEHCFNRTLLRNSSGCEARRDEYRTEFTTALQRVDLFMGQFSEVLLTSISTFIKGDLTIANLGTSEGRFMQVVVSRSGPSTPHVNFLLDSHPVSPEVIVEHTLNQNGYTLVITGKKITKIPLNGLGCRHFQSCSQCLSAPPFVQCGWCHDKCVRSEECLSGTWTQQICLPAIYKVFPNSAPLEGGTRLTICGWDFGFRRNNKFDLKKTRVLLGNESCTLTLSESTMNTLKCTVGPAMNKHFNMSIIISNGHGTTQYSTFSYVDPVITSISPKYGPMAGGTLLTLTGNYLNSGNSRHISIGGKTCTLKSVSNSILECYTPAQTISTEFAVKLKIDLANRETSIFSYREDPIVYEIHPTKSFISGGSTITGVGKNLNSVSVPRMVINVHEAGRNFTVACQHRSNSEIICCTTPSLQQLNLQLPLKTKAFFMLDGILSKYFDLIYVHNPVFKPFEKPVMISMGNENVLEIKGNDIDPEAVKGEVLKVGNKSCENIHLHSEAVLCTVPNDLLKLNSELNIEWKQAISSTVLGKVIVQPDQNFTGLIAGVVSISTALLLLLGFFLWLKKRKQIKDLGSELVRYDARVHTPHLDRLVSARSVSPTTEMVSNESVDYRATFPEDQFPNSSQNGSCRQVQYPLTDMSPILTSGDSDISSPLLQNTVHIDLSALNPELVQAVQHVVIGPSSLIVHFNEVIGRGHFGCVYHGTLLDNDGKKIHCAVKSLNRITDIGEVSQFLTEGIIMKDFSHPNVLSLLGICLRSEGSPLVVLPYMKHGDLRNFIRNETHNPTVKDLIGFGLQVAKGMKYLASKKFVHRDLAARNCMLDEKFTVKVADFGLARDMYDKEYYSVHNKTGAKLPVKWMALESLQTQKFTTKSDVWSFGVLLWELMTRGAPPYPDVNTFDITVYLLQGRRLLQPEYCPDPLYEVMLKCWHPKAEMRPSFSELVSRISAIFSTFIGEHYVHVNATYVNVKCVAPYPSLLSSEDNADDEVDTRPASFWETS
Outline: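 IC50 came from duplicate serial dilutions, with AlphaScreen detection of phosphorylated biotin-poly(Glu4:Tyr1). The reaction used 1 ng recombinant MET, 10 µM ATP […], and MOPS pH 7.0/MgCl2 buffer, ran 45 min at 30 °C, and was quenched with EDTA.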

SMILES | IC50 [1] [nM] | IC50 [2] [nM] | IC50 [3] [nM] | IC50 [4] [nM] | IC50 (PDGFRα kinase) [nM] | IC50 (MET kinase) [nM]
Cc1cc(CN2CCOCC2)ccc1-c1cc2c(s1)Cc1c(-c3ccc4cnn(C)c4c3)n[nH]c1-2 [Compound 91, 4-(3-methyl-4-(3-(1-methyl-1H-indazol-6-yl)-1,4-dihydrothieno [2′,3′:4,5]cyclopenta [1,2-c]pyrazol-6-yl)benzyl)morpholine] | > 10000 | 1000 to 10000 | > 10000 | 100 to 300 | 30 to 100 | > 1000
Cn1ncc2ccc(-c3n[nH]c4c3Cc3sc(-c5ccc(N)nc5)cc3-4)cc21 [Compound 92, 5-(3-(1-methyl-1H-indazol-6-yl)-1,4-dihydro-thieno[2′,3′:4,5]cyclopenta [1,2-c]pyrazol-6-yl) pyridin-2-amine] | > 10000 | 1000 to 10000 | 1000 to 10000 | < 30 | 1 to 10 | > 1000
CN(C)Cc1ccc(-c2cc3c(s2)Cc2c(-c4ccc5cnn(C)c5c4)n[nH]c2-3)cn1 [Compound 93, N,N-dimethyl-1-(5-(3-(1-methyl-1H-indazol-6-yl)-1,4-dihydrothieno [2′,3′:4,5]cyclopenta [1,2-c]pyrazol-6-yl)pyridin-2-yl)methanamine] | > 10000 | > 10000 | > 10000 | 30 to 100 | 100 to 300 | > 1000
CN(C)Cc1ccc(-c2cc3c(s2)Cc2c(-c4ccc5cnn(C)c5c4)n[nH]c2-3)cc1 [Compound 94, N,N-dimethyl-1-(4-(3-(1-methyl-1H-indazol-6-yl)-1,4-dihydrothieno [2′,3′:4,5]cyclopenta [1,2-c]pyrazol-6-yl)phenyl)methanamine] | 1000 to 10000 | 1000 to 10000 | 1000 to 10000 | < 30 | 1 to 10 | 300 to 1000
Cn1ncc2ccc(-c3n[nH]c4c3Cc3sc(-c5ccc(CN6CCNCC6=O)cc5)cc3-4)cc21 [Compound 101, 1-(4-(3-(1-methyl-1H-indazol-6-yl)-1,4-dihydro-thieno[2′,3′:4,5]cyclopenta [1,2-c]pyrazol-6-yl)benzyl)piperazin-2-one] | > 10000 | > 10000 | > 10000 | < 30 | 1 to 10 | > 1000

From patent US12448394B2, “Heterocyclic pyrazole derivatives as type III receptor tyrosine kinase inhibitors” (DEVELOPMENT CENTER FOR BIOTECHNOLOGY, priority 2019, dated 2025)
